# Results reported in US11802120B2, “Fused cyclic urea derivatives as CRHR2 antagonist” (RaQualia Pharma Inc., priority 2018, dated 2023).
# Target: T1, human CRHR2-alpha (Homo sapiens, UniProt Q13324)
# T1 sequence (Q13324 1-411): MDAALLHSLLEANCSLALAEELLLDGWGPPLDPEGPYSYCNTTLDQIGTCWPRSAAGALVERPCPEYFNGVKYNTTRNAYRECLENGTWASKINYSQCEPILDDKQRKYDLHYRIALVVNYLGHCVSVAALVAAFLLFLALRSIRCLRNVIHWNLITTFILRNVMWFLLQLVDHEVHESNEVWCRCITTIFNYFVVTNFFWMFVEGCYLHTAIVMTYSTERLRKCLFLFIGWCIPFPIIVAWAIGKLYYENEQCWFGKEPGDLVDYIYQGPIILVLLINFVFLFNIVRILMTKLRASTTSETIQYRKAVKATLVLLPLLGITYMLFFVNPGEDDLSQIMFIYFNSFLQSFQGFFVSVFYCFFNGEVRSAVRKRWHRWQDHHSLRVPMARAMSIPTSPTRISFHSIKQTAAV
# Assay: cAMP functional assay for human CRHR2 (LANCE Ultra cAMP, TR-FRET)
# Assay type: cell-based
# Conditions: CHO-K1 cells expressing human CRHR2-alpha, agonist human urocortin2 at EC80, cAMP; read-out: IC50 against CRHR2
# Experimental: cAMP functional assay for human CRHR1 and CRHR2
# The ability of the compounds of this invention to inhibit either CRHR2 or CRHR1 is assessed by 3′,5′-cyclic adenosine monophosphate (cAMP) production in cells using the LANCE Ultra cAMP assay kit (ParkinElmer), which are designed based on the homogeneous time-resolved fluorescence resonance energy transfer (TR-FRET) immunoassay.
# CHO-K1 (Chinese hamster ovary) cells stably expressing either human CRHR2-alpha (DiscoveRX, Cat. 95-0048C2) or human CRHR1-beta (DiscoveRX, Cat. 95-0047C2) are grown in HAM's F12 media supplemented with 10% fetal bovine serum (FBS), 100 units/mL penicillin, 100 microg/mL hygromycin and 0.5 microg/mL geneticin at 37° C. in 5% CO2 humidified incubator to 80% confluence. After 7 hours starvation treatment in culture media containing 0.1% FBS, the cells are washed with Hanks balanced salt solution (HBSS) and cryopreserved.
# For cAMP assay, frozen cells are thawed and washed with HBSS, followed by resuspended in assay buffer (HBSS containing 0.1% bovine serum albumin, 0.5 mM isobutylmethylxanthine and 5 mM Hepes, pH 7.4) at the appropriate concentration for the assay. The cell suspensions are plated on 384-well microplates (Greiner Bio-One) at a density of 4,000 cells per well. After preincubating the cells with various concentrations of the compounds for 30 min at 25° C., an assay buffer containing EC80 concentration of each agonist is added and the cells are incubated for 30 min at 25° C. Human urocortin2 (Peptide Institute) and CRF (Peptide Institute) are used as agonists for CRHR2 and CRHR1, respectively. For the termination of assay, europium-labeled cAMP tracer and ULight (registered trademark) dye labeled cAMP antibodies, both prepared with Lance-Ultra cAMP detection reagent (Perkin Elmer) are added in the plate and incubate for 60 min at 25° C. After incubation, TR-FRET signal is detected by EnVision plate reader (PerkinElmer). The IC50 values for compounds are calculated from dose-response curves by fitting the percent inhibition using XLfit (ID Business Solutions).
row,Compound,IC50
1,"COc1ccc(-n2c(=O)n(C[C@H]3CC[C@H](NC(=O)c4cc(Br)cnc4C)CC3)c3ccccc32)cn1 [Example 227, 5-bromo-N-((1r,4r)-4-((3-(6-methoxypyridin-3-yl)-2-oxo-2,3-dihydro-1H-benzo[d]imidazol-1-yl)methyl)cyclo-hexyl)-2-methylnicotinamide]",< 300 nM
2,"Cc1ncc(Cl)cc1C(=O)N[C@H]1CC[C@H](Cn2c(=O)n(-c3ccc(N4CCC4)nc3)c3ccccc32)CC1 [Example 162, N-((1r,4r)-4-((3-(6-(azetidin-1-yl)pyridin-3-yl)-2-oxo-2,3-dihydro-1H-benzo[d]imidazol-1-yl)methyl)cyclo-hexyl)-5-chloro-2-methyl-nicotinamide]",< 300 nM
3,"COCCn1nnc2cc(-n3c(=O)n(C[C@H]4CC[C@H](NC(=O)c5cc(Cl)cnc5C)CC4)c4ccccc43)ccc21 [Example 294, 5-chloro-N-((1r,4r)-4-((3-(1-(2-methoxyethyl)-1H-benzo[d][1,2,3]triazol-5-yl)-2-oxo-2,3-dihydro-1H-benzo[d]imidazol-1-yl)methyl)cyclohexyl)-2-methylnicotinamide]",< 300 nM
4,"CONC(=O)c1ccc(-n2c(=O)n(C[C@H]3CC[C@H](NC(=O)c4cc(Cl)cnc4C(F)(F)F)CC3)c3ccccc32)cn1 [Example 431, 5-(3-(((1r,4r)-4-(5-chloro-2-(trifluoromethyl)nicotinamido)cyclohexyl)methyl)-2-oxo-2,3-dihydro-1H-benzo[d]imidazol-1-yl)-N-methoxypicolinamide]",< 300 nM
5,"O=C(N[C@H]1CC[C@H](Cn2c(=O)n(CCOc3ccccc3)c3ncccc32)CC1)c1cc(Cl)cnc1C(F)F [Example 458, 5-chloro-2-(difluoromethyl)-N-((1r,4r)-4-((2-oxo-3-(2-phenoxyethyl)-2,3-dihydro-1H-imidazo[4,5-b]pyridin-1-yl)methyl)cyclohexyl) nicotinamide]",< 300 nM
6,"Cc1ncc(Cl)cc1C(=O)N[C@H]1CC[C@H](Cn2c(=O)n(-c3cnc4c(c3)CCN4C)c3ccccc32)CC1 [Example 154, 5-chloro-2-methyl-N-((1r,4r)-4-((3-(1-methyl-2,3-dihydro-1H-pyrrolo[2,3-b]pyridin-5-yl)-2-oxo-2,3-dihydro-1H-benzo[d]imidazol-1-yl)methyl)cyclohexyl)nicotinamide]",< 300 nM
7,"Cc1ncc(Cl)cc1C(=O)N[C@H]1CC[C@H](Cn2c(=O)n(-c3cc(N(C)C)ccc3C#N)c3ccccc32)CC1 [Example 273, 5-chloro-N-((1r,4r)-4-((3-(2-cyano-5-(dimethylamino)phenyl)-2-oxo-2,3-dihydro-1H-benzo[d]imidazol-1-yl)methyl)cyclohexyl)-2-methylnicotinamide]",< 300 nM
8,"N#Cc1ccncc1-n1c(=O)n(C[C@H]2CC[C@H](NC(=O)c3cc(Cl)cnc3C(F)F)CC2)c2ccccc21 [Example 373, 5-chloro-N-((1r,4r)-4-((3-(4-cyanopyridin-3-yl)-2-oxo-2,3-dihydro-1H-benzo[d]imidazol-1-yl)methyl)cyclohexyl)-2-(difluoromethyl)nicotinamide]",< 300 nM
9,"Cc1ncc(Cl)cc1C(=O)N[C@H]1CC[C@H](Cn2c(=O)n(-c3cccc4c3CCC4)c3ccncc32)CC1 [Example 238, 5-chloro-N-((1r,4r)-4-((1-(2,3-dihydro-1H-inden-4-yl)-2-oxo-1H-imidazo[4,5-c]pyridin-3(2H)-yl)methyl)cyclohexyl)-2-methylnicotinamide]",< 300 nM
10,"Cc1ncc(Cl)cc1C(=O)N[C@H]1CC[C@H](Cn2c(=O)n(-c3cnc4c(c3)OCCN4C)c3ccccc32)CC1 [Example 160, 5-chloro-2-methyl-N-((1r,4r)-4-((3-(4-methyl-3,4-dihydro-2H-pyrido[3,2-b][1,4]oxazin-7-yl)-2-oxo-2,3-dihydro-1H-benzo [d]imidazol-1-yl)methyl)cyclo-hexyl)nicotinamide]",< 300 nM
11,"Cc1ncc(Cl)cc1C(=O)N[C@H]1CC[C@H](Cn2c(=O)n(-c3cnc4ccccc4c3)c3ccccc32)CC1 [Example 346, 5-chloro-2-methyl-N-((1r,4r)-4-((2-oxo-3-(quinolin-3-yl)-2,3-dihydro-1H-benzo[d]imidazol-1-yl)methyl)cyclo-hexyl)nicotinamide]",< 300 nM
12,"Cc1ncc(Cl)cc1C(=O)N[C@H]1CC[C@H](Cn2c(=O)n(-c3cccc4ncncc34)c3ccccc32)CC1 [Example 187, 5-chloro-2-methyl-N-((1r,4r)-4-((2-oxo-3-(quinazolin-5-yl)-2,3-dihydro-1H-benzo[d]imidazol-1-yl)methyl)cyclo-hexyl)nicotinamide]",< 300 nM

# Next, values leading:
row,IC50,Compound
1,< 300 nM,"COc1cncc(-n2c(=O)n(C[C@H]3CC[C@H](NC(=O)c4cc(Cl)cnc4C)CC3)c3ccccc32)c1 [Example 484, 5-chloro-N-((1r,4r)-4-((3-(5-methoxypyridin-3-yl)-2-oxo-2,3-dihydro-1H-benzo[d]imidazol-1-yl)methyl)cyclo-hexyl)-2-methylnicotinamide]"
2,< 300 nM,"O=C(N[C@H]1CC[C@H](Cn2c(=O)n(-c3ccc(N4CCNC4=O)nc3)c3ccc(F)cc32)CC1)c1cc(Cl)cnc1C(F)F [Example 736, 5-chloro-2-(difluoromethyl)-N-((1r,4r)-4-((6-fluoro-2-oxo-3-(6-(2-oxoimidazolidin-1-yl)pyridin-3-yl)-2,3-dihydro-1H-benzo[d]imidazol-1-yl)methyl)cyclohexyl) nicotinamide]"
3,< 300 nM,"Cc1ncc(Cl)cc1C(=O)N[C@H]1CC[C@H](Cn2c(=O)n(-c3cccc(-c4cnn(C)c4)c3)c3ccccc32)CC1 [Example 678, 5-chloro-2-methyl-N-((1r,4r)-4-((3-(3-(1-methyl-1H-pyrazol-4-yl)phenyl)-2-oxo-2,3-dihydro-1H-benzo[d]imidazol-1-yl)methyl)cyclohexyl)nicotinamide]"
4,< 300 nM,"Cc1ncc(Cl)cc1C(=O)N[C@H]1CC[C@H](Cn2c(=O)n(-c3ccnc(-c4ccn(C)n4)c3)c3ccccc32)CC1 [Example 655, 5-chloro-2-methyl-N-((1r,4r)-4-((3-(2-(1-methyl-1H-pyrazol-3-yl)pyridin-4-yl)-2-oxo-2,3-dihydro-1H-benzo[d]imidazol-1-yl)methyl)cyclohexyl)nicotinamide]"
5,< 300 nM,"Cc1ncc(Cl)cc1C(=O)N[C@H]1CC[C@H](Cn2c(=O)n(-c3ccc(NCCC(F)F)nc3)c3ccccc32)CC1 [Example 480, 5-chloro-N-((1r,4r)-4-((3-(6-((3,3-difluoropropyl)amino)pyridin-3-yl)-2-oxo-2,3-dihydro-1H-benzo[d]imidazol-1-yl)methyl)cyclo-hexyl)-2-methylnicotinamide]"
6,< 300 nM,"CNc1ccc(-n2c(=O)n(C[C@H]3CC[C@H](NC(=O)c4cc(Cl)cnc4C(F)F)CC3)c3c(F)cccc32)cn1 [Example 672, 5-chloro-2-(difluoromethyl)-N-((1r,4r)-4-((7-fluoro-3-(6-(methylamino)pyridin-3-yl)-2-oxo-2,3-dihydro-1H-benzo [d]imidazol-1-yl)methyl)cyclo-hexyl)nicotinamide]"
7,< 300 nM,"Cc1ncc(Cl)cc1C(=O)N[C@H]1CC[C@H](Cn2c(=O)n(-c3cncc(N(C)C)c3)c3ccccc32)CC1 [Example 483, 5-chloro-N-((1r,4r)-4-((3-(5-(dimethylamino)pyridin-3-yl)-2-oxo-2,3-dihydro-1H-benzo [d]imidazol-1-yl)methyl)cyclo-hexyl)-2-methylnicotinamide]"
